# From patent publication US5446157A, “Boron difluoride compounds useful in photodynamic therapy and production of laser light” (priority 1993, dated 1995)
# Entries after “also recorded” stand apart in the source; their conditions may differ. Structures can show the parent of a compound that is named as a salt.
# Key:
# [1] = tested on: human ovarian tumor cells; assay: Photodynamic growth inhibition of human ovarian cancer cells in vitro (soft agar); assay type: cell-based
# Protocol: 1,3,5,7,8-pentamethylpyrromethene-boron difluoride-2,6-disodium disulfonate salt (PMPDS-BF2) and bimane diphosphonate were prepared according to previously described methods.
# Human ovarian cells from fifteen individual patients were evaluated. All cancers were epithelial originating ovarian adenocarcinomas. Each cancer had been passed through at least one culture in RPMI-1640 (10% FBA) medium prior to use in the present study. In each case cells were harvested and washed in RPMI-1640 medium and resuspended in concentrations of 2.6×10^6 cells/ml at 5° C. The cells (2.6×10^6 cells/ml) were then incubated in a RPMI-1640 growth medium (containing 10% fetal bovine […], penicillin 100 U/ml and streptomycin 100 μg/ml) pH, 7.4 with graded doses of PMPDS-BF2 complex for 30 minutes at 37° C. in a 5% CO2 /air incubator with gentle shaking. The three concentrations of PMPDS-BF2 evaluated in this study were 0.004 μg, 0.04 μg, and 0.4 μg/ml of medium. The cell suspension was then washed with cold RPMI-1640 medium to remove extracellular PMPDS-BF2 complex, and then the cells were resuspended in fresh RPMI growth medium. Fifteen (15) ml portions of the cell suspensions (2.6×10^6 cells/ml) were irradiated in glass tubes at 37° C. in room air over a 10-20 minute period using a General Electric sun lamp. Controls were cells exposed to PMPDS-BF2 with no light exposure, cells with light exposure alone and cells with neither exposure to light nor chemicals.
# Under identical conditions as above, bimane diphosphonate was evaluated for cytotoxic activities in the presence and absence of light. After the above incubations with PMPDS-BF2 or bimanes±light as controls, melted Bacto-agar (Difco Laboratories, Inc., Detroit, Mich.) was added to the cell suspensions to a final concentration of 0.3% agar. The mixtures were plated in 35 mm plastic tissue culture dishes on a feeder layer containing an enriched McCoy's 5A medium and 0.5% agar with the addition of 2-mercaptoethanol (5 mM) and DEAE-dextran. The seeding density for the cells in this study was kept between 1-5×10^4 cells per dish and the plates incubated at 37° C. in a CO2 incubator. Incubation was continued for another 2-3 weeks and the plates examined under an inverted phase contrast microscope and cells counted. Since these cells grow as tight aggregates in soft-agar, it was impossible to determine the number of cells in each growth. Instead, an ocular micrometer was used to count colonies 30 μm or larger in size. Plating efficiency, defined as the number of colonies formed per 100 viable cells plated, was compared between groups.
# [2] = tested on: metastatic breast cancer spread to the chest wall; assay: Topical photodynamic treatment of metastatic breast cancer of the chest wall, case history; assay type: in vivo, patient
# Source text: The following case history also illustrates topical application of one of the compounds of the present invention in a person with a 12-year history of metastatic breast cancer spread to the chest wall. The patient had been treated with combinations of numerous chemotherapeutic agents and radiation therapy. Their cancer continued to progress and they received nine weekly treatments with a topical 0.3% solution of 1,3,5,7,8-pentamethylpyrromethene boron difluoride-2,6-disulfonate (PMPDS-BF2) in dimethylsulfoxide applied to the chest wall lesions followed by exposure to a General Electric sunlamp for ten minutes. The patient had initially a greater than 50% shrinkage of their tumor, which lasted over nine weeks.
# [3] = topical 0.3% solution in dimethylsulfoxide, sunlamp ten minutes
smiles,measurement,setting,value
"CC1=C(S(=O)(=O)O)C(C)=[N+]2C1=C(C)c1c(C)c(S(=O)(=O)O)c(C)n1[B-]2(F)F [PMPDS-BF2, Disodium salt of 4,4-difluoro-1,3,5,7,8-pentamethyl-4-bora-3a,4a-diaza-s-indacene-2,6-disulfonic acid monohydrate]",inhibition in cell growth,[1]; 0.004 μg/ml plus light,40-70%
same,cell morphology,"[1]; 0.004 μg/ml plus light, within 48 hours",pyknotic changes with nuclear fragmentation
same,colonization / morphology of cells,"[1]; 0.04 μg/ml plus light, three days post exposure","unable to colonize, demonstrated pyknotic changes in the nucleus and cytoplasmic discoloration"
same,inhibition of cell growth,[1]; 0.4 μg/ml plus light,100%
same,cytotoxic response without light,"[1]; absence of light exposure, monohydrate",did not demonstrate significant cytotoxic responses; also recorded: did not produce cytotoxicities
same,shrinkage of tumor,"[2]; topical 0.3% solution in dimethylsulfoxide, nine weekly treatments, sunlamp ten minutes",greater than 50%
same,duration of tumor shrinkage,[2]; [3],over nine
same,toxic reactions,[2]; [3],no toxic reactions
same,course after nine week shrinkage,"[2]; topical 0.3% solution, after nine weeks",the metastatic lesions again began to grow
